We go through one molecule from patent publication US20180303940A1, “LIPOSOME PRODUCTION USING ISOPROPANOL” (GLAXOSMITHKLINE BIOLOGICALS, S.A., priority 2011, published 2018).

This series is described as follows: Cholesterol solubility in solvents at saturation (dry residue weighed). Format: physicochemical. The conditions noted are these: 50° C. The procedure: 3 solvent compared: Ethanol , Isopropanol, Heptane
Cholesterol was progressively added to each solvent at 50° C. up to saturation of the solution
Once saturation is achieved, a sample of the solution is taken and the solvent is evaporated with a rotary evaporator and/or in an oven. Dry residue of cholesterol is weighed to determine the solubility value

For the molecule `CC(C)CCC[C@@H](C)[C@H]1CC[C@H]2[C@@H]3CC=C4C[C@@H](O)CC[C@]4(C)[C@H]3CC[C@]12C` [cholesterol, (3β)-cholest-5-en-3-ol], under “ethanol”, the “cholesterol solubility in ethanol” value is recorded as 6.7%. For the same molecule, the “cholesterol solubility in heptane” value (heptane) is 4.3%. Moreover, for the setting “isopropanol”, the “cholesterol solubility in isopropanol” value was 12.1%.
